The source of these data is ChEMBL document CHEMBL1201862, “PubChem BioAssay data set” (2004).

Some test systems named below: CAKI-1; CCRF-CEM; HCT-116; HL-60; HOP-62; K562; KM12; NCI-H460; OVCAR-3; OVCAR-4; RXF 393; SF-539; SK-MEL-28; SK-MEL-5; SK-OV-3; TK-10; U-251; UO-31; PC-3.
Assay in all cases: DTP human tumour cell line panel, 48 h

SMILES strings stand for the structures.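 Dose response: 5 concentrations. Exposure: 48 h. Format: 96-well plates. Endpoint: linear interpolation; highest concentration if not reached. GI50 = concentration required for 50% inhibition of growth.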 The source made the active and inactive calls. Rule as the data show it: active = GI50 up to about 1.1 µM and inactive = higher. Bounds are passed on as bounds.

In the case of `c1ccc2c(CNCCCN3CCN(CCCNCc4cccc5ccccc45)CC3)cccc2c1`, the GI50 with CAKI-1 was 1.72 µM (inactive); in the assay on CCRF-CEM, 1.24 µM (inactive); with HCT-116, 1.51 µM (inactive); in the assay on HL-60, 1.44 µM (inactive); in the assay on HOP-62, 19.8 µM (inactive); with K562, 0.299 µM (active). In addition, the GI50 was 1.96 µM (inactive) in the assay with KM12; 1.41 µM (inactive) in the assay with NCI-H460; 2.89 µM (inactive) with OVCAR-3; 2.21 µM (inactive) in the assay with OVCAR-4; 1.08 µM (active) in the assay with RXF 393; 1.61 µM (inactive) in the assay on SF-539. For the same compound, the GI50 with SK-MEL-28 is 1.69 µM (inactive); in the assay on SK-MEL-5, 1.74 µM (inactive); in the assay on SK-OV-3 it was 2.39 µM (inactive); in the assay with TK-10, 1.5 µM (inactive); in the assay with U-251, 1.73 µM (inactive); in the assay on UO-31 it was 1.82 µM (inactive).
On to `CCC(=O)c1cn(C)c(=O)c2ccccc12`, for which the GI50 with CAKI-1, in the assay on CCRF-CEM, in the assay on HL-60, with HOP-62, in the assay with K562 and in the assay with KM12 was > 100 µM (inactive) throughout. Also, the GI50 in the assay on NCI-H460, in the assay on OVCAR-3, with OVCAR-4, with RXF 393, in the assay with SF-539 and in the assay with SK-MEL-28 was > 100 µM (inactive) throughout. Besides, the GI50 in the assay on SK-MEL-5, in the assay on SK-OV-3, in the assay with TK-10, in the assay on U-251 and in the assay on UO-31 was > 100 µM (inactive) in each case.
For `O=[N+]([O-])c1ccc(/C=C/c2ccc(/C=C/c3ccc([N+](=O)[O-])cc3[N+](=O)[O-])cc2)c([N+](=O)[O-])c1`, the GI50 in the assay on CAKI-1, in the assay on CCRF-CEM, in the assay on HCT-116, with HL-60, in the assay with HOP-62 and in the assay with K562 was > 100 µM (inactive) in each case. Besides, the GI50 in the assay on KM12, in the assay on NCI-H460, with OVCAR-3, with OVCAR-4, in the assay on RXF 393 and with SF-539 was > 100 µM (inactive) each time. In addition, the GI50 in the assay on SK-MEL-28, in the assay on SK-MEL-5, in the assay with SK-OV-3, with TK-10, in the assay with U-251 and in the assay with UO-31 was > 100 µM (inactive) throughout.
Regarding `S=c1sc2c(n1-c1ccccc1)N=CNC2S` (stereo not drawn), the GI50 with CAKI-1 was > 100 µM (inactive); in the assay with CCRF-CEM it was 46.2 µM (inactive); in the assay on HCT-116 it was 98.4 µM (inactive); in the assay on HL-60, 71.6 µM (inactive); with HOP-62, 41.3 µM (inactive); with K562 it was 63.2 µM (inactive). The GI50 in the assay with KM12 was > 100 µM (inactive); in the assay on NCI-H460, > 100 µM (inactive); with OVCAR-3, 77.1 µM (inactive); in the assay on OVCAR-4 it was > 100 µM (inactive); in the assay on RXF 393, > 100 µM (inactive); with SF-539 it was 65.3 µM (inactive). Also, the GI50 in the assay on SK-MEL-28 is > 100 µM (inactive); in the assay on SK-MEL-5, 57 µM (inactive); in the assay with SK-OV-3, > 100 µM (inactive); in the assay with TK-10, > 100 µM (inactive); with U-251, 36.1 µM (inactive); with UO-31, 37.3 µM (inactive).
As to `Cc1ccnc(NS(=O)(=O)c2ccc(N=[N+]=[N-])cc2)n1`, the GI50 is > 100 µM (inactive) in the assay with CAKI-1; > 21.4 µM (inactive) with CCRF-CEM; > 100 µM (inactive) in the assay on HCT-116; > 46.9 µM (inactive) in the assay with HL-60; > 100 µM (inactive) in the assay on HOP-62; > 100 µM (inactive) in the assay with KM12. For the same compound, the GI50 with NCI-H460, in the assay with OVCAR-3, in the assay on OVCAR-4, in the assay with PC-3, in the assay on RXF 393 and in the assay on SF-539 was > 100 µM (inactive) each time. Also, the GI50 in the assay with SK-MEL-28, with SK-MEL-5, in the assay with SK-OV-3, in the assay on TK-10, in the assay with U-251 and in the assay with UO-31 was > 100 µM (inactive) throughout.
For the compound `CCNCCNC(=O)c1ccc(Br)cc1`, the GI50 in the assay with CAKI-1, in the assay on CCRF-CEM, in the assay on HL-60, in the assay on K562, in the assay on KM12 and with NCI-H460 was > 100 µM (inactive) in each case. Also, the GI50 in the assay on OVCAR-3, in the assay with OVCAR-4, with PC-3, with RXF 393, in the assay with SF-539 and with SK-MEL-28 was > 100 µM (inactive) throughout. Moreover, the GI50 in the assay on SK-MEL-5, in the assay on SK-OV-3, in the assay with TK-10, in the assay with U-251 and in the assay on UO-31 was > 100 µM (inactive) in each case.
`CC1(SCC(N)C(=O)O)CC(=O)NC1=O` (stereo not drawn): the GI50 in the assay with CAKI-1, with CCRF-CEM, in the assay on HCT-116, with HL-60, in the assay on HOP-62 and in the assay on K562 was > 100 µM (inactive) throughout. The GI50 with KM12, in the assay on NCI-H460, with OVCAR-3, in the assay with OVCAR-4, in the assay with RXF 393 and in the assay with SF-539 was > 100 µM (inactive) each time. In addition, the GI50 in the assay on SK-MEL-28, with SK-MEL-5, in the assay with SK-OV-3, in the assay on TK-10, in the assay with U-251 and with UO-31 was > 100 µM (inactive) each time.
On to `N#Cc1c(NN)nc(NN)c(C#N)c1-c1ccccc1`, for which the GI50 with CAKI-1, in the assay on CCRF-CEM, with HCT-116, with HL-60, with HOP-62 and with K562 was > 100 µM (inactive) throughout. Also, the GI50 in the assay with KM12 was > 100 µM (inactive); in the assay with NCI-H460, > 100 µM (inactive); in the assay on OVCAR-3, > 100 µM (inactive); in the assay with OVCAR-4, > 100 µM (inactive); with RXF 393, 96.6 µM (inactive); in the assay with SF-539 it was > 100 µM (inactive). For the same compound, the GI50 in the assay on SK-MEL-28, with SK-MEL-5, in the assay with SK-OV-3, in the assay with TK-10 and with UO-31 was > 100 µM (inactive) each time.
Turning to `Nc1nc(SCc2ccccc2Cl)c2ncn(C3OC(CO)C(O)C3O)c2n1` (stereo not drawn), the GI50 with CAKI-1 is > 100 µM (inactive); in the assay with CCRF-CEM, > 100 µM (inactive); with HCT-116 it was 42.4 µM (inactive); in the assay on HL-60, 50.5 µM (inactive); in the assay with HOP-62, > 100 µM (inactive); in the assay with K562, 57 µM (inactive). Besides, the GI50 in the assay on KM12 is > 100 µM (inactive); in the assay on NCI-H460, > 100 µM (inactive); in the assay with OVCAR-3, 80.4 µM (inactive); in the assay on OVCAR-4, 74.3 µM (inactive); with RXF 393, 28.6 µM (inactive); in the assay on SF-539 it was 89.1 µM (inactive). The GI50 in the assay on SK-MEL-28 was 69.2 µM (inactive); in the assay with SK-MEL-5 it was 54.2 µM (inactive); in the assay on SK-OV-3 it was > 100 µM (inactive); in the assay with TK-10 it was > 100 µM (inactive); in the assay on U-251, > 100 µM (inactive); in the assay on UO-31 it was 29.1 µM (inactive).
Take `CC(=O)Oc1ccc2[nH]c3c(C)c4cccc-4ccc3c2c1`: the GI50 with CAKI-1 is 1.86 µM (inactive); with HCT-116 it was 2.07 µM (inactive); with HL-60, 2.72 µM (inactive); in the assay with HOP-62 it was 2.29 µM (inactive); with K562, 3.79 µM (inactive); in the assay on KM12, 2.44 µM (inactive). Besides, the GI50 in the assay on NCI-H460 was 2.94 µM (inactive); with OVCAR-3, 1.62 µM (inactive); in the assay with OVCAR-4, 1.84 µM (inactive); with PC-3, 1.87 µM (inactive); in the assay with RXF 393, 1.82 µM (inactive); with SK-MEL-28 it was 2.31 µM (inactive). The GI50 was 1.83 µM (inactive) with SK-MEL-5, 2.02 µM (inactive) with SK-OV-3, 1.87 µM (inactive) in the assay on TK-10 and 1.76 µM (inactive) in the assay on UO-31.
`COc1ccc(CNc2nc(NCc3ccc(OC)cc3)nc(NC(C)C)n2)cc1`: the GI50 with CAKI-1 is 20.3 µM (inactive); with HCT-116, 3.18 µM (inactive); in the assay with HL-60, 4.08 µM (inactive); in the assay with HOP-62, 6.56 µM (inactive); in the assay with K562, 6.98 µM (inactive); in the assay on KM12 it was 5.07 µM (inactive). Also, the GI50 in the assay with NCI-H460 is 3.66 µM (inactive); with OVCAR-3 it was 3.33 µM (inactive); in the assay with OVCAR-4, 20.3 µM (inactive); in the assay on PC-3, 3.3 µM (inactive); in the assay on RXF 393 it was 7.08 µM (inactive); with SF-539, 9.08 µM (inactive). In addition, the GI50 with SK-MEL-28 is 46.8 µM (inactive); with SK-MEL-5, 4.85 µM (inactive); in the assay on SK-OV-3, 93.3 µM (inactive); in the assay with TK-10, 17.9 µM (inactive); with U-251 it was 7.52 µM (inactive); in the assay with UO-31, 19.5 µM (inactive).
